“Also recorded” adds a separate entry of the source.
Columns and labels:
[1] = test system: DNA methylation (LINE-1) in PBMC DNAs; experiment: LINE-1 DNA methylation in PBMC DNAs of patients; type: in vivo, human; details: Arm C patients, 200 mg oral AZA alone; Days 1, 8, and 15 of 21-day cycle
Description: In one embodiment, PBMC DNA was used for assessing changes in DNA methylation, using assays such as LINE-1 methylation, %5 mdC mass spec, Infinium® Methylation27 Array, and Infinium® Methylation450 Array. In one study, DNA methylation (LINE-1) in PBMC DNAs from patients in clinical studies described in Example 1, dosed with 200 mg oral AZA alone or in combination with CDBCA or ABX, was measured on Days 1, 8, and 15 of 21-day cycle. […] In one study, %5 mdC in PBMC DNAs from patients in clinical studies described in Example 1, dosed with 200 mg oral AZA alone or in combination with CDBCA or ABX, was measured on Days 1, 8, and 15 of 21-day cycle. In one study, methylation levels were measured on Days 1, 8, and 15 of 21-day cycle using Infinium® Methylation27 Array (patients dosed with 200 mg oral AZA alone or in combination with CDBCA or ABX) and density profiles of average methylation levels were analyzed. […] In another study, methylation levels were measured using Infinium® Methylation450 Array (patients dosed with 300 mg oral AZA alone or in combination with CDBCA or ABX) and density profiles of average methylation levels were analyzed, as well as % change of hypermethylated loci (beta >0.7) upon treatment.

[2] = test system: DNA methylation in PBMCs; experiment: DNA methylation in PBMCs of patients by Infinium Methylation27/Methylation450 Array; type: in vivo, human; details: Arm C alone; for patients with DNA hypomethylation in PBMCs: Arm A with CBDCA
[3] = PK exposure of AZA in patients of the clinical study; type: in vivo; details: human, plasma; oral AZA 200 mg or 300 mg, alone or in combination; read-out: AUCinf of patients in whom decreases in DNA methylation were observed
[4] = test system: EBV Z promoter (CpGs 1-3); experiment: EBV promoter methylation by pyrosequencing in RAEL cells (Z promoter); type: cell-based, Epstein-Barr Virus
Description: (§1) Assay Procedure: The RAEL and Ramos Burkitt's lymphoma cell lines were treated with vehicle (water) or AZA once a day (qd) for the number of days indicated in FIG. 6 and FIG. 15. For the experiment described in FIG. 6, cells were collected on days 1 through 9 (singlicate sample per condition per time point); at each time point, an aliquot of cells was used to purify deoxyribonucleic acid (DNA) (DNeasy Blood & Tissue Kit; Qiagen; Valencia, Calif.) for EBV DNA (Z and R promoters) methylation analysis (FIG. 7; FIG. 8) at EpigenDx (Hopkinton, Mass.), while a second aliquot of cells was lysed in QuantiGene Lysis Buffer for gene expression analysis (FIG. 9 to FIG. 14) using the QuantiGene Multiplex 2.0 assay (Affymetrix; Santa Clara, Calif.). The pyrosequencing assay used at EpigenDx to assess the methylation status of cytosine-phosphate-guanine dinucleotides (CpGs) 1-3 of the EBV Z promoter (Li L, Su X, Choi G, Cao Y, Ambinder R, Tao Q. Methylation profiling of Epstein-Barr virus immediate-early gene promoters, BZLF1 (EBV gene encoding for the Zta transcription factor) and BRLF1 (EBV gene encoding for the Rta transcription factor) in tumors of epithelial, NK- and B-cell origins. BMC Cancer 2012 Mar. 29; 12:125) was ADS3981-FS1, while that for CpGs 16-20 of the EBV R promoter (Li, 2012) was ADS3984-FS2.
(§2) The RAEL EBV^+ Burkitt's lymphoma cell line was treated with vehicle or 0.3 μM AZA once a day for 4 days (FIG. 6). Cells were harvested on days 1 through 9 to assess the effects of AZA on EBV promoter (Zp and Rp) methylation, as well as EBV gene expression. […] Zp and Rp methylation remained low for the remainder of the experiment, even in the absence of continued AZA treatment (FIG. 7; FIG. 8). In parallel with the effects of AZA on EBV promoter methylation, AZA induced expression of EBV genes.

[5] = test system: EBV R promoter (CpGs 16-20); experiment: EBV promoter methylation by pyrosequencing in RAEL cells (R promoter); type: cell-based, Epstein-Barr Virus
Description: as §1, §2

[6] = test system: BHRF1; experiment: EBV gene expression in RAEL cells, QuantiGene Multiplex 2.0 assay; type: cell-based, Epstein-Barr Virus; details: 0.3 μM AZA once a day for 4 days, days 1 through 9, listed as AZA
Description: as §1, §2

[7] = test system: BLLF1; experiment: as above; type: cell-based, Epstein-Barr Virus; details: 0.3 μM AZA once a day for 4 days, days 1 through 9
Description: as §1, §2

[8] = test system: BRLF1; experiment: as above; type: cell-based, Epstein-Barr Virus; details: 0.3 μM AZA once a day for 4 days, days 1 through 9, listed as AZA
Description: as §1, §2

[9] = test system: EBNA1; experiment: as above; type: cell-based, Epstein-Barr Virus; details: 0.3 μM AZA once a day for 4 days, days 1 through 9, listed as AZA
Description: as §1, §2

[10] = test system: EBNA2; experiment: as above; type: cell-based, Epstein-Barr Virus; details: 0.3 μM AZA once a day for 4 days, days 1 through 9, listed as AZA
Description: as §1, §2

[11] = test system: LMP1; experiment: as above; type: cell-based, Epstein-Barr Virus; details: 0.3 μM AZA once a day for 4 days, days 1 through 9, listed as AZA
Description: as §1, §2

[12] = test system: EBV proteins EBNA1, EBNA2, Zta, and LMP1 in RAEL cell line; experiment: EBV protein expression by Western blotting in RAEL cell line; type: cell-based, Epstein-Barr virus; details: cells collected on day 6
[13] = test system: EBV proteins EBNA1, EBNA2, Zta, and LMP1 in Ramos cell line; experiment: EBV protein expression by Western blotting in Ramos cell line; type: cell-based, Epstein-Barr virus; details: AZA once a day for 1 or 2 days, cells collected on day 6, listed as AZA
Description: as §1, with “ADS3984-FS2. […]” for “ADS3984-FS2.”

[14] = test system: Zta; details: RAEL cells; 72 hours; AZA 0.3 or 1.0 uM, ROMI 0.5, 1.0, or 2.0 nM, or combination
[15] = test system: higher-risk MDS; details: Phase III study; administered subcutaneously; subjects with higher-risk MDS; cited from earlier work
[16] = RAEL EBV+ Burkitt's lymphoma cell line, 0.3 μM AZA once a day for 4 days, harvested days 1 through 9, listed as AZA
[17] = RAEL, 0.3 μM AZA once a day for 4 days
[18] = RAEL, after 0.3 μM AZA once a day for 4 days, up to day 9

Nc1ncn([C@@H]2O[C@H](CO)[C@@H](O)[C@H]2O)c(=O)n1 [5-azacytidine, 4-amino-1-β-D-ribofuranosyl-1,3,5-triazin-2(1H)-one]
DNA methylation (LINE-1) in PBMC DNAs [1]: Decreases in LINE-1 methylation were observed for two patients
change in DNA methylation in PBMCs upon treatment (Infinium Methylation27 Array, density profiles of average methylation levels) ([2]; 200 mg oral AZA, Arm A with CDBCA, Arm B with ABX, Days 1, 8, and 15 of 21-day cycle): decreases in hypermethylated loci (beta >0.7) were observed
patients with DNA hypomethylation in PBMCs ([2]; 200 mg oral AZA, Arm B with ABX): 5/6
patients with DNA hypomethylation in PBMCs ([2]; 300 mg oral AZA): 3/3
AUC(0-inf) [3]: > 350 ng·h/mL
Zp methylation [4, 16]: causes the demethylation; also recorded: precipitously decreased
time to maximal hypomethylation of Zp [4, 17]: ≤ 4 days
Zp methylation for the remainder of the experiment, in the absence of continued AZA treatment [4, 18]: remained low
Rp methylation [5, 16]: causes the demethylation; also recorded: precipitously decreased
time to maximal hypomethylation of Rp [5, 17]: ≤ 4 days
Rp methylation for the remainder of the experiment, in the absence of continued AZA treatment [5, 18]: remained low
ribonucleic acid expression of BHRF1 [6]: strongly induced expression
ribonucleic acid expression of BLLF1 [7]: did not affect the expression of BLLF1 as much as other genes
ribonucleic acid expression of BRLF1 [8]: strongly induced expression
ribonucleic acid expression of EBNA1 [9]: strongly induced expression
ribonucleic acid expression of EBNA2 [10]: strongly induced expression
ribonucleic acid expression of LMP1 [11]: strongly induced expression
expression of the EBV proteins EBNA1, EBNA2, Zta, and LMP1 ([12]; RAEL (EBV+) cell line, AZA once a day for 1 or 2 days, listed as AZA): induces expression of EBV proteins; also recorded: dose-dependently induced expression
induction of EBV proteins, AZA for 2 days compared with AZA for 1 day ([12]; RAEL, Western blotting): greater induction of EBV proteins
expression of the EBV proteins EBNA1, EBNA2, Zta, and LMP1 [13]: not in the EBV-negative (EBV−) Ramos
Zta expression (Zta band intensity with GAPDH as house-keeping protein) [14]: slight increase in Zta expression
survival and time to AML transformation or death [15]: significantly prolonged survival and time to AML transformation or death

From patent publication US20150359810A1, “METHODS FOR TREATING EPSTEIN-BARR VIRUS (EBV) ASSOCIATED CANCERS USING ORAL FORMULATIONS OF 5-AZACYTIDINE” (Celgene Corporation, priority 2014, published 2015)
